Source: PubChem BioAssay (NCI)
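Growth conditions: 96-well plates. Treatment: test compound, 48 hours, 5 concentrations. Analysis: linear interpolation between bracketing concentrations; unreached endpoints set to highest concentration. TGI is the concentration that stops growth completely.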

Tests used:
Assay in all cases: DTP human tumour cell line panel, 48 h
[1] = tested on: CCRF-CEM leukemia
[2] = tested on: SK-MEL-28 melanoma
[3] = tested on: PC-3 prostate
[4] = tested on: ACHN renal
[5] = tested on: OVCAR-8 ovarian
[6] = tested on: NCI-H23 lung
[7] = tested on: T-47D breast
[8] = tested on: DU-145 prostate
[9] = tested on: M14 melanoma
[10] = tested on: A549 NSCLC
[11] = tested on: HS 578T breast
[12] = tested on: NCI/ADR-RES ovarian
[13] = tested on: UACC-257 melanoma
[14] = tested on: HCT-116 colon
[15] = tested on: OVCAR-3 ovarian
[16] = tested on: CAKI-1 renal
[17] = tested on: NCI-H522 lung
[18] = tested on: EKVX NSCLC
[19] = tested on: SR leukemia
[20] = tested on: HOP-92 NSCLC

| SMILES | TGI [1] [µM] | TGI [2] [µM] | TGI [3] [µM] | TGI [4] [µM] | TGI [5] [µM] | TGI [6] [µM] | TGI [7] [µM] | TGI [8] [µM] | TGI [9] [µM] | TGI [10] [µM] | TGI [11] [µM] | TGI [12] [µM] | TGI [13] [µM] | TGI [14] [µM] | TGI [15] [µM] | TGI [16] [µM] | TGI [17] [µM] | TGI [18] [µM] | TGI [19] [µM] | TGI [20] [µM] |
| --- | --- | --- | --- | --- | --- | --- | --- | --- | --- | --- | --- | --- | --- | --- | --- | --- | --- | --- | --- | --- |
| COc1ccc2oc(=N)c(C(=O)NCc3ccccc3)cc2c1 | > 100 | > 100 | > 100 | 73.9 | 40.4 | 43.1 | 44.6 | 88.8 | > 100 | > 100 | 42.7 | 36.8 | > 100 | > 100 | > 100 | > 100 | 43.5 | > 100 | > 100 | – |
| COC(=O)C1=CC2CCCC1(O)C(C(C)=O)C2 (configuration not stated) | > 68.3 | > 100 | > 100 | > 100 | > 79.5 | > 100 | > 100 | > 100 | > 100 | > 100 | > 100 | > 100 | > 100 | > 100 | > 100 | > 100 | 31.7 | > 86.6 | > 81.5 | > 100 |
| C=CCOc1ccc(/C(N=Nc2ccc(Cl)cc2)=N/NC(=O)c2ccccc2)cc1OC | 86.9 | > 100 | > 100 | > 100 | > 100 | > 100 | 61.6 | > 100 | > 100 | > 100 | > 100 | > 100 | > 100 | > 100 | > 100 | > 100 | > 100 | > 100 | > 100 | 91.6 |
| O=C1c2c(ccc3c2CCCC3)CC12Cc1ccc3c(c1C2=O)CCCC3 | > 100 | > 100 | > 100 | > 100 | > 100 | > 100 | > 100 | > 100 | > 100 | > 100 | > 100 | > 100 | > 100 | > 100 | > 100 | – | > 100 | > 100 | > 100 | > 100 |
| S=c1sc2c(s1)SCCCCSCCCCSc1sc(=S)sc1SCCCCSCCCCS2 | > 100 | > 100 | > 100 | > 100 | > 100 | > 100 | > 100 | > 100 | > 100 | > 100 | > 100 | > 100 | > 100 | > 100 | > 100 | > 100 | > 100 | > 100 | > 100 | – |
| C=CCOc1ccc(/C(N=Nc2ccc([N+](=O)[O-])cc2)=N/NC(=O)c2ccccc2)cc1OC | > 100 | > 100 | > 100 | > 100 | > 100 | > 100 | > 100 | > 100 | > 100 | > 100 | > 100 | > 100 | > 100 | > 100 | > 100 | > 100 | > 100 | > 100 | > 100 | > 100 |
| O=C(C1OC1c1ccc(O)cc1)C12CC3CC(CC(C3)C1)C2 (configuration not stated) | > 41.5 | > 100 | > 100 | > 94.5 | > 100 | > 100 | 51.6 | > 100 | > 100 | > 100 | > 100 | > 100 | > 100 | > 69.8 | > 64.8 | > 66.1 | 24.7 | > 78.2 | > 100 | 57.4 |
| O=Nc1c(O)cc(Nc2ccc(Br)cc2)c2ccccc12 | > 100 | 4.2 | > 100 | 25.1 | 37.2 | 3.47 | > 73.8 | 3.33 | 3.03 | 6.04 | > 28.4 | 33.1 | 3.33 | > 59.2 | > 51.9 | 23.7 | > 100 | > 100 | 72.4 | 45.2 |
| CCOC(CN=C=S)OCC | > 10 | > 10 | > 10 | > 10 | > 10 | > 10 | > 10 | > 10 | > 10 | > 10 | > 10 | > 10 | > 10 | > 10 | > 10 | > 10 | > 10 | > 10 | > 10 | > 10 |
| Cc1ccc(C2=Nc3cccc4cccc(c34)N2)cc1 | > 100 | > 100 | > 100 | > 100 | > 100 | > 100 | > 100 | > 100 | > 100 | > 100 | > 100 | > 100 | > 100 | > 100 | > 100 | > 100 | > 100 | > 100 | > 100 | > 100 |
| CC(=O)NC(CS/N=N/c1nc[nH]c1C(N)=O)C(=O)O (configuration not stated) | > 23.1 | > 100 | > 100 | > 100 | > 100 | > 100 | > 100 | > 100 | > 100 | > 100 | > 100 | > 100 | > 100 | > 100 | > 100 | > 41.2 | > 100 | > 100 | 0.0673 | > 100 |
| CCOC(=O)C1=[N+]([O-])OC2=C(O)CCCC21 (configuration not stated) | > 100 | > 100 | > 100 | > 100 | > 100 | > 100 | > 100 | > 100 | > 100 | > 100 | > 100 | > 100 | > 100 | > 100 | > 100 | > 100 | > 100 | > 100 | > 100 | > 100 |
